Tested on: salty taste
Assay: Sensory evaluation of salty taste-enhancing activity (quantitative sensory evaluation test)
Assay type: in vivo, panelists
Procedure: The strength of the salty taste enhancing activity of the compound of Example 35 was examined by a quantitative sensory evaluation test.
The quantitative sensory evaluation test was performed as follows. The strength of the salty taste enhancing activity when the compound of Example 35 as a sample was mixed at 0.00005 to 0.0040 g/dl with distilled water containing sodium chloride (0.5 g/dl) was measured. Distilled water containing sodium chloride at 0.55 g/dl, 0.60 g/dl, 0.65 g/dl was used as a comparison target. Using a linear measurement method, the corresponding marks were put down as positions in the straight lines showing the sodium chloride concentrations of 1.0 time (0.50 g/dl), 1.1 times (0.55 g/dl), 1.2 times (0.60 g/dl), 1.3 times (0.65 g/dl). For sensory marks, the positions put down by the panelists were measured, averaged and shown as the salty taste enhancement ratio (times) wherein n=5. […] The “initial taste” is the evaluation of the strength of the salty taste for 2 seconds after placing in the mouth, and the “middle and after taste” is a combination of middle taste and after taste, which is the evaluation of the strength of the salty taste after 2 seconds from placing in the mouth.

[1] = sensory evaluation FIG. 2 compared with FIG. 3

Question: `O=C(NCCc1c[nH]c2ccc(O)cc12)c1c(O)cccc1O` [Example 35, 2,6-dihydroxy-N-(2-(5-hydroxy-1H-indol-3-yl)ethyl)benzamide] was tested. Which “salty taste enhancing activity” value (0.00005 to 0.0040 g/dl in distilled water containing sodium chloride 0.5 g/dl, n=5, FIG. 2) did it give?
Answer: has a salty taste enhancing activity

Question: What about the “concentration region in which salty taste enhancing effect and ENaC activation current began to show” value [1] of the same molecule?
Answer: ≤ 0.0001 g/dL

Question: What about the “concentration region in which salty taste enhancing effect and ENaC activation current reach plateau” value [1] of the same molecule?
Answer: exceeding 0.0010 g/dl

— patent US20130196050A1, “SALTY TASTE ENHANCER” (AJINOMOTO CO., INC., priority 2010, published 2013)
